Measurements from ChEMBL document CHEMBL1201862, “PubChem BioAssay data set” (2004).
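A five-concentration, 48-hour dose response in 96-well plates underlies each endpoint, interpolated linearly between surrounding concentrations. Abbreviation: GI50, concentration required for 50% inhibition of growth.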 Calls of active or inactive are those of the source. No stated cut-off is given here; in the data, active = GI50 up to about 1.1 µM and inactive = higher.

Tests used:
Test in all cases: inhibition of tumour cell growth, NCI panel, 48 h
HCT-15 = test system: HCT-15
SN12C = test system: SN12C
SF-539 = test system: SF-539
EKVX = test system: EKVX
SF-295 = test system: SF-295
DMS-114 = test system: DMS-114
UO-31 = test system: UO-31
CAKI-1 = test system: CAKI-1
SNB-78 = test system: SNB-78
NCI-H23 = test system: NCI-H23
A498 = test system: A498
SK-MEL-5 = test system: SK-MEL-5
Malme-3M = test system: Malme-3M
TK-10 = test system: TK-10
U-251 = test system: U-251
SK-MEL-28 = test system: SK-MEL-28
786-0 = test system: 786-0
MOLT-4 = test system: MOLT-4
KM-20L2 = test system: KM-20L2
M14 = test system: M14
HOP-18 = test system: HOP-18
NCI-H522 = test system: NCI-H522
SNB-19 = test system: SNB-19
RPMI-8226 = test system: RPMI-8226
UACC-257 = test system: UACC-257
OVCAR-4 = test system: OVCAR-4
SF-268 = test system: SF-268
NCI-H460 = test system: NCI-H460
K562 = test system: K562
SNB-75 = test system: SNB-75
CCRF-CEM = test system: CCRF-CEM
ACHN = test system: ACHN
OVCAR-8 = test system: OVCAR-8
HT-29 = test system: HT-29
SW-620 = test system: SW-620
DLD-1 = test system: DLD-1
IGROV-1 = test system: IGROV-1
COLO 205 = test system: COLO 205
KM12 = test system: KM12
HCC 2998 = test system: HCC 2998
UACC-62 = test system: UACC-62
LXFL 529 = test system: LXFL 529
OVCAR-5 = test system: OVCAR-5
HCT-116 = test system: HCT-116
OVCAR-3 = test system: OVCAR-3
SK-OV-3 = test system: SK-OV-3
SK-MEL-2 = test system: SK-MEL-2
HOP-62 = test system: HOP-62
A549 = test system: A549
DMS-273 = test system: DMS-273
HOP-92 = test system: HOP-92
HL-60 = test system: HL-60
SR = test system: SR
LOX IMVI = test system: LOX IMVI
RXF 393 = test system: RXF 393
M19-MEL = test system: M19-MEL

C/C1=N\[N-]C(=O)c2ccccc2C(=O)N/N=C(\C)c2cccc1n2.O=[N+]([O-])[O-].[Zn+2] was tested, and the GI50 (HCT-15) was over 100 µM, the GI50 (SN12C) was > 100 µM (inactive) and the GI50 (SF-539) was > 100 µM (inactive). For the same compound, the GI50 (EKVX) was > 100 µM (inactive), the GI50 (SF-295) was > 100 µM (inactive) and the GI50 (DMS-114) was > 100 µM (inactive). The GI50 (UO-31) was > 100 µM (inactive), the GI50 (CAKI-1) was > 100 µM (inactive) and the GI50 (SNB-78) was > 100 µM (inactive). The GI50 (NCI-H23) was > 100 µM (inactive), the GI50 (A498) was > 100 µM (inactive) and the GI50 (SK-MEL-5) was > 100 µM (inactive). The GI50 (Malme-3M) was > 100 µM (inactive), the GI50 (TK-10) was > 100 µM (inactive) and the GI50 (U-251) was > 100 µM (inactive). The GI50 (SK-MEL-28) was > 100 µM (inactive), the GI50 (786-0) was > 100 µM (inactive) and the GI50 (MOLT-4) was > 100 µM (inactive). For the same compound, the GI50 (KM-20L2) was > 100 µM (inactive), the GI50 (M14) was > 100 µM (inactive) and the GI50 (HOP-18) was > 100 µM (inactive). For the same compound, the GI50 (NCI-H522) was > 100 µM (inactive), the GI50 (SNB-19) was > 100 µM (inactive) and the GI50 (RPMI-8226) was > 100 µM (inactive). The GI50 (UACC-257) was > 100 µM (inactive), the GI50 (OVCAR-4) was > 100 µM (inactive) and the GI50 (SF-268) was > 100 µM (inactive). The GI50 (NCI-H460) was > 100 µM (inactive), the GI50 (K562) was > 100 µM (inactive) and the GI50 (SNB-75) was 19.5 µM (inactive). For the same compound, the GI50 (CCRF-CEM) was > 100 µM (inactive), the GI50 (ACHN) was > 100 µM (inactive) and the GI50 (OVCAR-8) was > 100 µM (inactive). For the same compound, the GI50 (HT-29) was > 100 µM (inactive), the GI50 (SW-620) was > 100 µM (inactive) and the GI50 (DLD-1) was > 100 µM (inactive). For the same compound, the GI50 (IGROV-1) was > 100 µM (inactive), the GI50 (COLO 205) was > 100 µM (inactive) and the GI50 (KM12) was > 100 µM (inactive). For the same compound, the GI50 (HCC 2998) was > 100 µM (inactive), the GI50 (UACC-62) was > 100 µM (inactive) and the GI50 (LXFL 529) was 44.2 µM (inactive). For the same compound, the GI50 (OVCAR-5) was > 100 µM (inactive), the GI50 (HCT-116) was > 100 µM (inactive) and the GI50 (OVCAR-3) was > 100 µM (inactive). For the same compound, the GI50 (SK-OV-3) was > 100 µM (inactive), the GI50 (SK-MEL-2) was > 100 µM (inactive) and the GI50 (HOP-62) was > 100 µM (inactive). The GI50 (A549) was > 100 µM (inactive).
Cc1cc(C)n(-c2nsc3ccccc23)n1 was tested, and the GI50 (HCT-15) was over 100 µM, the GI50 (SN12C) was > 100 µM (inactive) and the GI50 (SF-539) was > 100 µM (inactive). For the same compound, the GI50 (DMS-273) was > 100 µM (inactive), the GI50 (EKVX) was 91.4 µM (inactive) and the GI50 (DMS-114) was > 100 µM (inactive). The GI50 (UO-31) was > 100 µM (inactive), the GI50 (SNB-78) was > 100 µM (inactive) and the GI50 (NCI-H23) was > 100 µM (inactive). For the same compound, the GI50 (SK-MEL-5) was > 100 µM (inactive), the GI50 (HOP-92) was 80.5 µM (inactive) and the GI50 (HL-60) was > 100 µM (inactive). For the same compound, the GI50 (TK-10) was > 100 µM (inactive), the GI50 (U-251) was > 100 µM (inactive) and the GI50 (SK-MEL-28) was > 100 µM (inactive). For the same compound, the GI50 (MOLT-4) was > 100 µM (inactive), the GI50 (KM-20L2) was > 100 µM (inactive) and the GI50 (M14) was > 100 µM (inactive). The GI50 (SR) was > 100 µM (inactive), the GI50 (HOP-18) was 15.8 µM (inactive) and the GI50 (SNB-19) was > 100 µM (inactive). The GI50 (RPMI-8226) was > 100 µM (inactive), the GI50 (UACC-257) was > 100 µM (inactive) and the GI50 (OVCAR-4) was > 100 µM (inactive). For the same compound, the GI50 (SF-268) was > 100 µM (inactive), the GI50 (NCI-H460) was > 100 µM (inactive) and the GI50 (K562) was 89.1 µM (inactive). The GI50 (SNB-75) was 26.9 µM (inactive), the GI50 (CCRF-CEM) was > 100 µM (inactive) and the GI50 (ACHN) was > 100 µM (inactive). The GI50 (OVCAR-8) was > 100 µM (inactive), the GI50 (HT-29) was > 100 µM (inactive) and the GI50 (SW-620) was > 100 µM (inactive). For the same compound, the GI50 (LOX IMVI) was > 100 µM (inactive), the GI50 (RXF 393) was > 100 µM (inactive) and the GI50 (IGROV-1) was > 100 µM (inactive). For the same compound, the GI50 (COLO 205) was > 100 µM (inactive), the GI50 (KM12) was > 100 µM (inactive) and the GI50 (HCC 2998) was > 100 µM (inactive). For the same compound, the GI50 (UACC-62) was > 100 µM (inactive), the GI50 (LXFL 529) was > 100 µM (inactive) and the GI50 (OVCAR-5) was > 100 µM (inactive). For the same compound, the GI50 (M19-MEL) was > 100 µM (inactive), the GI50 (HCT-116) was > 100 µM (inactive) and the GI50 (OVCAR-3) was > 100 µM (inactive). The GI50 (SK-MEL-2) was > 100 µM (inactive), the GI50 (HOP-62) was > 100 µM (inactive) and the GI50 (A549) was > 100 µM (inactive).
